32 compounds from patent EP3227262B1, “SULFIDE ALKYL AND PYRIDYL REVERSE SULFONAMIDE COMPOUNDS FOR HBV TREATMENT” (Novira Therapeutics Inc., priority 2014, dated 2016) can be followed below.

Molecules are shown by their SMILES. pEC50: −log10 of the molar value.

In the first experiment the test system is HBV. The experiment can be described thus: Inhibition of HBV replication dot-blot assay in HBV-producing hepatoma cell line. The class given is cell-based. Particulars: Hepatitis B virus, 144 h; activity in Dot-Blot assay; HepG2-2.2.15 cells; reduction in HBV DNA levels, six days. The method, then: Compounds active in the HBV assembly assay are tested for their activity and toxicity in cellular assay. In the first anti-viral assay, the ability of compounds to inhibit HBV replication in an HBV-producing hepatoma cell line using the dot-blot method is evaluated.
(§1) Briefly, confluent monolayers of HepG2-2.2.15 cells are incubated with complete medium containing various concentrations of a test compound. Three days later, the culture medium is replaced with fresh medium containing the appropriately diluted test compound. Six days following the initial administration of the test compound, the cell culture supernatant is collected, and cell lysis is performed. The samples are applied onto Nylos membranes and DNA is immobilized to the membrane by UV cross-linking. After pre-hybridization, the HBV probe is added and the hybridization is performed overnight. The membranes are exposed to the KODAK films; antiviral activity is calculated from the reduction in HBV DNA levels (EC50). The EC50 for antiviral activity is calculated from the dose response curves of active compounds. Assay performance over time is monitored by the use of the standard positive control compounds ETV, BAY 41-4109, and HAP-1.
Selected compounds are tested for their activity and toxicity in cellular assay. In the first anti-viral assay, the ability of compounds to inhibit HBV replication in an HBV-producing hepatoma cell line using the dot-blot method is evaluated.
as §1, with “Confluent monolayers” for “Briefly, confluent monolayers”, “lysis was” for “lysis is”
Compound `O=C(Nc1cc(F)c(F)c(F)c1)c1ccc(F)c(SC2CCC(O)CC2)c1` (mixture of isomers) [Compound 10, (cis/trans)-4-Fluoro-3-((4-hydroxycyclohexyl)thio)-N-(3,4,5-trifluorophenyl)benzamide] showed a pEC50 of more than 5.00.
Take `O=C(Nc1ccc(F)c(Cl)c1)c1ccc(F)c(SC2CCC(O)CC2)c1` (mixture of isomers) [Compound 24, (cis/trans)-N-(3-Chloro-4-fluorophenyl)-4-fluoro-3-((4-hydroxycyclohexyl)thio)benzamide]: the pEC50 is more than 5.00.
For the compound `O=C(Nc1cc(F)c(F)c(F)c1)c1ccc(F)c(SC2CCC(C(=O)O)CC2)c1` (mixture of isomers) [Compound 62, (cis/trans)-4-((2-Fluoro-5-((3,4,5-trifluorophenyl)carbamoyl)phenyl)thio)cyclohexanecarboxylic acid], the pEC50 is more than 5.00.
Still for that read-out and setting: next, `O=C(Nc1ccc(F)c(F)c1)c1ccc(F)c(SC2CCC(C(=O)O)CC2)c1` (mixture of isomers) [Compound 63, (cis/trans)-4-((S-((3,4-Difluorophenyl)carbamoyl)-2-fluorophenyl)thio)cyclohexanecarboxylic acid]: more than 5.00.
Same read-out and setting: next, `O=C(Nc1cc(F)c(F)c(F)c1)c1ccc(F)c(SC2CC3C(C2)C3C(=O)O)c1` (mixture of isomers) [Compound 98, (cis/trans)-3-((2-fluoro-5-((3,4,5-trifluorophenyl)carbamoyl)phenyl)thio)bicyclo[3.1.0]hexane-6-carboxylic acid]: more than 5.00; `CS(=O)(=O)NC(=O)C1C2CC(Sc3cc(C(=O)Nc4cc(F)c(F)c(F)c4)ccc3F)CC21` (mixture of isomers) [Compound 99, (cis/trans)-3-((2-Fluoro-5-((3,4,5-trifluorophenyl)carbamoyl)phenyl)thio)-N-(methylsulfonyl)bicyclo[3.1.0]hexane-6-carboxamide]: more than 5.00.
As to `O=C(Nc1ccc(F)c(Cl)c1)c1cc(F)nc(NS(=O)(=O)C2CC2)c1` [Compound 137, N-(3-Chloro-4-fluorophenyl)-2-(cyclopropanesulfonamido)-6-fluoroisonicotinamide], the pEC50 is more than 5.00.
On the same count and under the same terms, the same measure for `O=C(Nc1ccc(F)c(Cl)c1)c1cc(F)nc(NS(=O)(=O)c2ccccc2)c1` [Compound 138, N-(3-Chloro-4-fluorophenyl)-2-fluoro-6-(phenylsulfonamido)isonicotinamide]: more than 5.00; for `O=C(Nc1ccc(F)c(Cl)c1)c1ccnc(NS(=O)(=O)Cc2ccccc2)c1` [Compound 139, N-(3-Chloro-4-fluorophenyl)-2-(phenylmethylsulfonamido)isonicotinamide]: more than 5.00; for `O=C(Nc1ccc(F)c(Cl)c1)c1ccnc(NS(=O)(=O)c2cccs2)c1` [Compound 141, N-(3-Chloro-4-nuorophenyl)-2-(thiophene-2-sulfonamido)isonicotinamide]: more than 5.00.
The same measure, in the same setting: next, `O=C(Nc1ccc(F)c(Cl)c1)c1cc(NS(=O)(=O)C2CC2)ncc1F` [Compound 144, N-(3-Chloro-4-fluorophenyl)-2-(cyclopropanesulfonamido)-5-fluoroisonicotinamide]: more than 5.00; `O=C(Nc1ccc(F)c(Cl)c1)c1cc(NS(=O)(=O)C2CC2)ncc1Cl` [Compound 149, 5-Chloro-N-(3-chloro-4-fluorophenyl)-2-(cyclopropanesulfonamido)isonicotinamide]: more than 5.00; `O=C(Nc1ccc(F)c(Cl)c1)c1ccnc(NS(=O)(=O)CC2CCCC2)c1` [Compound 150, N-(3-Chloro-4-fluorophenyl)-2-(cyclopentylmethylsulfonamido)isonicotinamide]: more than 5.00.
On the same count and under the same terms, the same measure for `Cc1ccc(CS(=O)(=O)Nc2cc(C(=O)Nc3ccc(F)c(Cl)c3)ccn2)cc1` [Compound 152, N-(3-Chloro-4-fluorophenyl)-2-(p-tolylmethylsulfonamido)isonicotinamide]: more than 5.00.
On to `CC(C)(C)S(=O)(=O)Nc1cc(C(=O)Nc2ccc(F)c(Cl)c2)ccn1` [Compound 154, N-(3-Chloro-4-fluorophenyl)-2-(1,1-dimethylethylsulfonamido)isonicotinamide], for which the pEC50 was more than 5.00.
On the same count and under the same terms, the same measure for `O=C(Nc1ccc(F)c(Cl)c1)c1ccnc(NS(=O)(=O)CC2(O)CCC2)c1` [Compound 155, N-(3-Chloro-4-fluorophenyl)-2-((1-hydroxycyclobutyl)methylsulfonamido) isonicotinamide]: more than 5.00; for `CC(C)(O)CS(=O)(=O)Nc1cc(C(=O)Nc2ccc(F)c(Cl)c2)ccn1` [Compound 156, N-(3-Chloro-4-fluorophenyl)-2-(2-hydroxy-2-methylpropylsulfonamido) isonicotinamide]: more than 5.00; for `CC(C)S(=O)(=O)Nc1cc(C(=O)Nc2ccc(F)c(Cl)c2)ccn1` [Compound 163, N-(3-Chloro-4-fluorophenyl)-2-(1-methylethylsulfonamido)isonicotinamide]: more than 5.00.
On the same count and under the same terms, next, `CC(C)(C)CS(=O)(=O)Nc1cc(C(=O)Nc2ccc(F)c(Cl)c2)ccn1` [Compound 164, N-(3-Chloro-4-fluorophenyl)-2-(2,2-dimethylpropylsulfonamido)isonicotinamide]: more than 5.00; `CC(C)S(=O)(=O)Nc1cc(C(=O)Nc2ccc(F)c(F)c2)ccn1` [Compound 165, N-(3,4-Difluorophenyl)-2-(1-methylethylsulfonamido)isonicotinamide]: more than 5.00; `COc1ccc(CCS(=O)(=O)Nc2cc(C(=O)Nc3ccc(F)c(Cl)c3)ccn2)cc1` [Compound 173, N-(3-Chloro-4-fluorophenyl)-2-(2-(4-methoxyphenyl)ethylsulfonamido)isonicotinamide]: more than 5.00.
Take `Cc1cc(NC(=O)c2ccc(F)c(NS(=O)(=O)c3ccn(C)n3)c2)ccc1F` [Compound 197, 4-fluoro-N-(4-fluoro-3-methylphenyl)-3-(1-methyl-1H-pyrazole-3-sulfonamido)benzamide]: the pEC50 was more than 5.00.
The same measure, in the same setting: the same measure for `COCCS(=O)(=O)Nc1cccc(C(=O)Nc2ccc(F)c(Cl)c2)c1` [Compound 198, N-(3-chloro-4-fluorophenyl)-3-(2-methoxyethylsulfonamido)benzamide]: more than 5.00.
On to `O=C(Nc1ccc(F)c(Cl)c1)c1cccc(NS(=O)(=O)c2cccs2)c1` [Compound 199, N-(3-chloro-4-fluorophenyl)-3-(thiophene-2-sulfonamido)benzamide], for which the pEC50 is more than 5.00.
Regarding `O=C(Nc1ccc(F)c(Cl)c1)c1cccc(NS(=O)(=O)c2cn[nH]c2)c1` [Compound 200, N-(3-chloro-4-fluorophenyl)-3-(1H-pyrazole-4-sulfonamido)benzamide], the pEC50 is more than 5.00.
On the same count and under the same terms, the same measure for `Cc1n[nH]c(C)c1S(=O)(=O)Nc1cccc(C(=O)Nc2ccc(F)c(Cl)c2)c1` [Compound 201, N-(3-chloro-4-fluorophenyl)-3-(3,5-dimethyl-1H-pyrazole-4-sulfonamido)benzamide]: more than 5.00; for `O=C(Nc1ccc(F)c(Cl)c1)c1cccc(NS(=O)(=O)N2CCC(OCc3ccccc3)CC2)c1` [Compound 207, 3-(4-(benzyloxy)piperidine-1-sulfonamido)-N-(3-chloro-4-fluorophenyl)benzamide]: more than 5.00.

Another experiment deals with HBV. The experiment can be described thus: HBV replication inhibition assay (encapsidated HBV DNA in supernatant, bDNA QuantiGene). The class given is cell-based. Particulars: Hepatitis B virus, 144 h, HepG2.2.15 cells, supernatant at day 6, read-out: Extra HBV DNA.
Consider `O=C(Nc1cc(F)c(F)c(F)c1)c1ccc(F)c(SC2CCC(O)CC2)c1` (mixture of isomers) [Compound 10, (cis/trans)-4-Fluoro-3-((4-hydroxycyclohexyl)thio)-N-(3,4,5-trifluorophenyl)benzamide], for which the pEC50 is 7.05.
In the case of `O=C(Nc1ccc(F)c(Cl)c1)c1ccc(F)c(SC2CCC(O)CC2)c1` (mixture of isomers) [Compound 24, (cis/trans)-N-(3-Chloro-4-fluorophenyl)-4-fluoro-3-((4-hydroxycyclohexyl)thio)benzamide], the pEC50 was 7.38.
On the same count and under the same terms, the same measure for `O=C(Nc1cc(F)c(F)c(F)c1)c1ccc(F)c(SC2CCC(C(=O)O)CC2)c1` (mixture of isomers) [Compound 62, (cis/trans)-4-((2-Fluoro-5-((3,4,5-trifluorophenyl)carbamoyl)phenyl)thio)cyclohexanecarboxylic acid]: 6.15; for `O=C(Nc1ccc(F)c(F)c1)c1ccc(F)c(SC2CCC(C(=O)O)CC2)c1` (mixture of isomers) [Compound 63, (cis/trans)-4-((S-((3,4-Difluorophenyl)carbamoyl)-2-fluorophenyl)thio)cyclohexanecarboxylic acid]: 5.80; for `O=C(Nc1cc(F)c(F)c(F)c1)c1ccc(F)c(SC2CC3C(C2)C3C(=O)O)c1` (mixture of isomers) [Compound 98, (cis/trans)-3-((2-fluoro-5-((3,4,5-trifluorophenyl)carbamoyl)phenyl)thio)bicyclo[3.1.0]hexane-6-carboxylic acid]: 5.89.
Same read-out and setting: the same measure for `CS(=O)(=O)NC(=O)C1C2CC(Sc3cc(C(=O)Nc4cc(F)c(F)c(F)c4)ccc3F)CC21` (mixture of isomers) [Compound 99, (cis/trans)-3-((2-Fluoro-5-((3,4,5-trifluorophenyl)carbamoyl)phenyl)thio)-N-(methylsulfonyl)bicyclo[3.1.0]hexane-6-carboxamide]: 5.40; for `O=C1CCCCC(Sc2cccc(C(=O)Nc3ccc(F)c(Cl)c3)c2)C1` (racemic) [Compound 38, (±)-N-(3-Chloro-4-fluorophenyl)-3-((3-oxocycloheptyl)thio)benzamide]: 5.90.
Same read-out and setting: the same measure for `O=C(Nc1ccc(F)c(Cl)c1)c1cccc(S[C@H]2CCCC[C@@H](O)C2)c1` (racemic) [Compound 39A, (±)-N-(3-Chloro-4-fluorophenyl)-3-(((1S,3R)-3-hydroxycycloheptyl)thio)benzamide]: 5.89.
Take `O=C(Nc1ccc(F)c(Cl)c1)c1cccc(S[C@@H]2CCCC[C@@H](O)C2)c1` (racemic) [Compound 39B, (±)-N-(3-Chloro-4-fluorophenyl)-3-(((1R,3R)-3-hydroxycycloheptyl)thio)benzamide]: the pEC50 was 5.89.
Turning to `O=C(Nc1ccc(F)c(Cl)c1)c1cccc(SCCCO)c1` [Compound 40, N-(3-Chloro-4-fluorophenyl)-3-((3-hydroxypropyl)thio)benzamide], the pEC50 was 6.12.
Turning to `O=C(Nc1ccc(F)c(Cl)c1)c1cc(NS(=O)(=O)C2CC2)ccn1` [Compound 126, N-(3-Chloro-4-fluorophenyl)-4-(cyclopropanesulfonamido)picolinamide], the pEC50 is 6.00.
